How the values were obtained:
CDK1/cyclinB = molecular target: T1, CDK1/cyclinB (Homo sapiens, UniProt P06493); assay: Inhibition of CDK enzyme activity (ADP-Glo kinase assay); format: biochemical; settings: 10 uM ATP, histone H1 substrate
T1 construct: purchased Merck Millipore
Description: (§1) Test compounds were prepared by dissolving the compounds obtained in the above Examples in dimethylsulfoxide (DMSO) at a concentration of 10 mM. The test compounds were diluted to 200 nM, 50 nM, […], 3.13 nM, 0.78 nM, and 0.2 nM and used in an enzyme reaction.
(§2) CDK enzyme reaction was conducted in a buffer containing 50 mM Tris-HCl (pH 7.5), 10 mM MgCl2, 1 mM EGTA, 1 mM EDTA, and 2 mM DTT. CDK1/cyclinB, CDK2/cylcinE, CDK5/p25, and CDK6/cyclinD3 enzymes commercially available from Merck Millipore were used for CDK1, CDK2, CDK5, and CDK6 enzymes, respectively, and CDK4/cyclinD1 enzyme commercially available from Signalchem (US) was used for CDK4. For CDK1, a reaction proceeded by adding 10 nM CDK1/cyclinB and 0.125 mg/ml histone H1 (Merck Millipore) substrate to the buffer and then adding 10 uM ATP thereto. For CDK2, a reaction was proceeded by adding 10 nM CDK2/cyclinE and 0.125 mg/ml histone H1 substrate to the buffer and then adding 10 uM ATP thereto. For CDK5, a reaction was proceeded by adding 10 nM CDK5/p25 and 0.125 mg/ml histone H1 substrate to the buffer and then adding 10 uM ATP thereto. For CDK4, a reaction was proceeded by adding 20 nM CDK4/cyclinD1 and 0.125 mg/ml Rb protein (Merck Millipore) to the buffer and then adding 10 uM ATP thereto. For CDK6, a reaction was proceeded by adding 50 nM CDK6/cyclinD3 and 0.125 mg/ml histone H1 substrate to the buffer and then adding 10 uM ATP thereto. Each enzyme reaction was incubated at 30° C. for 60 min. Then, the amount of ADP produced was measured using Victor X4 instrument (Perkin Elmer) after generating luminescence using ADP-Glo kinase assay kit (Promega, US). An inhibition effect on each enzyme was represented as a percentage of the luminescence value in the presence of the test compounds relative to the luminescence value without the test compounds. IC50 (nM) is the concentration of the compound to inhibit 50% of the enzyme activity.

CDK2/cyclinE = molecular target: T2, CDK2/cyclinE (Homo sapiens, UniProt P24941); assay: as above; format: biochemical; settings: 10 uM ATP, histone H1 substrate
T2 construct: purchased Merck Millipore
Description: as §1, §2

CDK5/p25 = molecular target: T3, CDK5/p25 (Homo sapiens, UniProt Q00535); assay: as above; format: biochemical; settings: 10 uM ATP, histone H1 substrate
T3 construct: purchased Merck Millipore
T3 sequence (Q00535 whole entry): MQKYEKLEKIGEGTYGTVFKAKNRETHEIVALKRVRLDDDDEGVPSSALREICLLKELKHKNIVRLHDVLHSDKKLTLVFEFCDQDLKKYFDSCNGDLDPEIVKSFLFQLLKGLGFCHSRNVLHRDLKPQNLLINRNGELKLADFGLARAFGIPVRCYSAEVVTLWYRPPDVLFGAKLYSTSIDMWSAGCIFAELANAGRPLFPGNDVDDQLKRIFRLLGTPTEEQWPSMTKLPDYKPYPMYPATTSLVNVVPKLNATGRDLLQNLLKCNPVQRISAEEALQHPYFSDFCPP
T3 sequence (Q15078 99-307 partner limits assumed): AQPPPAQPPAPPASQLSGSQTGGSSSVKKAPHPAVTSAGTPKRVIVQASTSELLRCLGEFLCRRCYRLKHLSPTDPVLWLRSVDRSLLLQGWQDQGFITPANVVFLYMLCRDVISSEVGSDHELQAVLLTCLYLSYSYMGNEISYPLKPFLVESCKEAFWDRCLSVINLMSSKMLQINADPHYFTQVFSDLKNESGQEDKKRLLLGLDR
Description: as §1, §2

A549 = assay: Inhibition of cancer cell proliferation (MTT); format: cell-based, human; settings: Homo sapiens, A549, 72 h
Summary of the method: (§3)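 Growth inhibition over 72 h was measured in attached cultures (3000 per well) with 0.08% DMSO as the control. Viable cells were detected with a 2 h MTT step, and the concentration giving 50% inhibition was taken as GI50.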

HCT116 = assay: Inhibition of cancer cell proliferation (MTT); format: cell-based, human; settings: 72 hrs
NCI-H23 = assay: Inhibition of cancer cell proliferation (MTT); format: cell-based, human; settings: Homo sapiens, NCI-H23, 72 h
Summary of the method: as §3

T98G = assay: Inhibition of cancer cell proliferation (MTT); format: cell-based, human; settings: 72 hrs
Summary of the method: as §3

U-87MG = assay: Inhibition of cancer cell proliferation (MTT); format: cell-based, human; settings: 72 hrs
Summary of the method: as §3

[1] = Blood brain barrier permeation; format: in vivo, ICR mice; settings: mouse, oral once 10 mg/kg, 10 mg/kg
Description: Using 9-week-old male ICR mice, the compounds obtained in the above Examples were orally administered once at a dose of 10 mg/kg or 30 mg/kg, and after 1 hr and 4 hrs, the concentrations of the compounds in the blood and brain of the mice were determined. 3 ICR mice were assigned in each group. Plasma was separated from the blood obtained after sacrificing the mice at each time, the brain of the mice was extracted, and the […] was washed with PBS, followed by pulverizing the brain tissue. The blood was placed in a test tube containing heparin to prevent coagulation and then was centrifuged at 12,000 rpm at 4° C. for 3 min to give a supernatant from which plasma was collected. Brain tissue was weighed, and the brain was pulverized using Dounce's homogenizer after adding 3 times as much volume of PBS as the brain weight. Each of the obtained analytical samples was quantitatively analyzed using a tandem liquid chromatography-mass spectrometer (Tandem LC/MS/MS, API3000 & Agilent 1100 series). Brain permeability of a compound is expressed as a value obtained by dividing the concentration of the compound in the brain by the concentration of the compound in the plasma (B/P ratio), and when the B/P ratio is greater than 1, it means that the concentration in the brain is higher than the one in the blood.

Aβ (amyloid β protein) = assay: Inhibition of Aβ generation in B103/APP cells (Aβ42 ELISA); format: cell-based; settings: Rattus norvegicus, 72 hrs
Description: The APP gene was inserted into B103 cells so that APP could be stably expressed and the resulting B103/APP cells were used to confirm inhibition of APP phosphorylation and Aβ generation.
Further, to confirm whether Aβ generation is reduced due to APP phosphorylation inhibition, 5×10^5 B103/APP cells were cultured in a 6-well plate for 16 hrs. Afterwards, the compounds obtained in the above Examples were added at 100 nM, 75 nM, 50 nM, 25 nM, 12.5 nM to a medium containing 500 ug/ml of G418 and 0.5% FBS and incubated for 72 hrs. After 72 hrs, the amount of Aβ was quantified using the medium by Human Aβ42 ELISA kit (Invitrogen).

T1 sequence (P06493 whole entry): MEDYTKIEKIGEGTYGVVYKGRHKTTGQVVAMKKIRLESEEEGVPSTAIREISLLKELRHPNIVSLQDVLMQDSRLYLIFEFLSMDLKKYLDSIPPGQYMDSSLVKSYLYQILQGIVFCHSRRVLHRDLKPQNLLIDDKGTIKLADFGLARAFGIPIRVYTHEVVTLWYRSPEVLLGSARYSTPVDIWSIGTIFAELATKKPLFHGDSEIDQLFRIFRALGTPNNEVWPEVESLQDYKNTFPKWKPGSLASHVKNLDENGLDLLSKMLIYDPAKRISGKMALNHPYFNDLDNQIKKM
T1 sequence (P14635 whole entry partner): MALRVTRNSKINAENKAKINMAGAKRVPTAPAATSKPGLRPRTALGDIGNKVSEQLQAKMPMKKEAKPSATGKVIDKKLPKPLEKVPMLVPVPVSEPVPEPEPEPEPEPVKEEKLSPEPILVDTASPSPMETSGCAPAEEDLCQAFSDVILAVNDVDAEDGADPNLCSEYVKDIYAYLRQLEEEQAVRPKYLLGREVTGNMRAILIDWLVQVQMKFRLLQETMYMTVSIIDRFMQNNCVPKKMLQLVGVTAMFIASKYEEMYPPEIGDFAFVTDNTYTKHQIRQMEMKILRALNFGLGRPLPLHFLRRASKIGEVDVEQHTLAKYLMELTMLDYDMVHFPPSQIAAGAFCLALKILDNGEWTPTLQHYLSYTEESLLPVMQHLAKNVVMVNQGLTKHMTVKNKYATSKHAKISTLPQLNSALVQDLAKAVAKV

For `Nc1nccc(-c2nc(-c3ccnc(N)c3F)ccc2O)n1` [Example 66], the IC50 (CDK1/cyclinB) was 0.6 nM, the IC50 (CDK2/cyclinE) was 1 nM and the IC50 (CDK5/p25) was 0.3 nM. The GI50 (A549) was 30 nM, the GI50 (HCT116) was 10 nM and the GI50 (NCI-H23) was 30 nM. The GI50 (T98G) was 30 nM, the GI50 (U-87MG) was 20 nM and the B/P ratio ([1]; 1 hr) was 2.44. The “Concentration in the brain” value ([1]; 1 hr) was 80.5 ng/g, the “Concentration in the plasma” value ([1]; 1 hr) was 32.9 ng/mL and the B/P ratio ([1]; 4 hrs) was 2.93. The “Concentration in the brain” value ([1]; 4 hrs) was 58.9 ng/g, the “Concentration in the plasma” value ([1]; 4 hrs) was 20.1 ng/mL and the inhibition at 0.0125 µM (Aβ (amyloid β protein); 12.5 nM) was 36.6%. It also gave an inhibition at 0.025 µM (Aβ (amyloid β protein); 25 nM) of 46.6%, an inhibition at 0.05 µM (Aβ (amyloid β protein); 50 nM) of 75.9% and an inhibition at 0.075 µM (Aβ (amyloid β protein); 75 nM) of 100%. It also gave an inhibition at 0.1 µM (Aβ (amyloid β protein); 100 nM) of 100%.
